Experimental data reported in patent US11541055B2, “Inhibitors of human immunodeficiency virus replication” (ViiV Healthcare UK (No. 5) LIMITED, priority 2018, dated 2023).
pEC50: −log10 of the molar value.

Legend:
[1] = Compound cytotoxicity, XTT-based colorimetric assay; format: cell-based; settings: human; uninfected MT2 cells, day 4, XTT
Procedure, shortened: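 Run under the antiviral-assay protocol but without virus. Viability was read on day 4 and CC50 values were derived from the readout.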

[2] = system: recombinant NL4-3 virus (Renilla luciferase) in MT-2 cells; assay: HIV cell culture assay (antiviral activity, luciferase readout); format: cell-based; settings: Renilla, NL43
Procedure, shortened: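 MT-2 cells were infected with recombinant NL4-3 virus carrying Renilla luciferase in place of part of nef. Cells were cultured 4–5 days with serially diluted compound, and luciferase was measured with a live-cell substrate. EC50 was calculated from the median effect equation.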

| Structure (SMILES) | CC50 at 4 days [1] [pM] | pEC50 [2] |
| --- | --- | --- |
| Cn1nc(NS(C)(=O)=O)c2c(Cl)ccc(-n3c([C@H](Cc4cc(F)cc(F)c4)NC(=O)Cn4nc(C(F)F)c5c4C(F)(F)[C@@H]4C[C@H]54)nc4cc(-c5nccnc5C5CC5)ccc4c3=O)c21 (atropisomer, axis not shown; (P)) [Example 61, N—((S)-1-((3P)-3-(4-chloro-1-methyl-3-(methylsulfonamido)-1H-indazol-7-yl)-7-(3-cyclopropylpyrazin-2-yl)-4-oxo-3,4-dihydroquinazolin-2-yl)-2-(3,5-difluorophenyl)ethyl)-2-((3bS,4aR)-3-(difluoromethyl)-5,5-difluoro-3b,4,4a,5-tetrahydro-1H-cyclopropa[3,4]cyclopenta[1,2-c]pyrazol-1-yl)acetamide] | > 500000 | 9.80 |
| Cn1nc(NS(C)(=O)=O)c2c(Cl)ccc(-n3c([C@H](Cc4cc(F)cc(F)c4)NC(=O)Cn4nc(C(F)F)c5c4C(F)(F)[C@@H]4C[C@H]54)nc4cc(-c5ccccc5C(F)(F)F)ccc4c3=O)c21 (atropisomer, axis not shown; (P)) [Example 24, N—((S)-1-((3P)-3-(4-chloro-1-methyl-3-(methylsulfonamido)-1H-indazol-7-yl)-4-oxo-7-(2-(trifluoromethyl)phenyl)-3,4-dihydroquinazolin-2-yl)-2-(3,5-difluorophenyl)ethyl)-2-((3bS,4aR)-3-(difluoromethyl)-5,5-difluoro-3b,4,4a,5-tetrahydro-1H-cyclopropa[3,4]cyclopenta[1,2-c]pyrazol-1-yl)acetamide] | > 500000 | 9.08 |
| Cn1nc(NS(C)(=O)=O)c2c(Cl)ccc(-n3c([C@H](Cc4cc(F)cc(F)c4)NC(=O)Cn4nc(C(F)F)c5c4C(F)(F)[C@@H]4C[C@H]54)nc4cc(-c5ccccc5OC(F)(F)F)ccc4c3=O)c21 (atropisomer, axis not shown; (P)) [Example 14, N—((S)-1-((3P)-3-(4-chloro-1-methyl-3-(methylsulfonamido)-1H-indazol-7-yl)-4-oxo-7-(2-(trifluoromethoxy)phenyl)-3,4-dihydroquinazolin-2-yl)-2-(3,5-difluorophenyl)ethyl)-2-((3bS,4aR)-3-(difluoromethyl)-5,5-difluoro-3b,4,4a,5-tetrahydro-1H-cyclopropa[3,4]cyclopenta[1,2-c]pyrazol-1-yl)acetamide] | > 500000 | 8.68 |
| CCc1ccnc(-c2ccc3c(=O)n(-c4ccc(Cl)c5c(NS(C)(=O)=O)nn(CC(F)(F)F)c45)c([C@H](Cc4cc(F)cc(F)c4)NC(=O)Cn4nc(C(F)F)c5c4C(F)(F)[C@@H]4C[C@H]54)nc3c2)n1 (atropisomer, axis not shown) [Example 111, N-[(1S)-1-{3-[4-chloro-3-methanesulfonamido-1-(2,2,2-trifluoroethyl)-1H-indazol-7-yl]-7-(4-ethylpyrimidin-2-yl)-4-oxo-3,4-dihydroquinazolin-2-yl}-2-(3,5-difluorophenyl)ethyl]-2-[(2S,4R)-9-(difluoromethyl)-5,5-difluoro-7,8-diazatricyclo[4.3.0.0^2,^4]nona-1(6),8-dien-7-yl]acetamide] | > 500000 | 9.96 |
| COc1ccc(-c2ccc3c(=O)n(-c4ccc(Cl)c5c(NS(C)(=O)=O)nn(C)c45)c([C@H](Cc4cc(F)cc(F)c4)NC(=O)Cn4nc(C(F)F)c5c4C(F)(F)[C@@H]4C[C@H]54)nc3c2)nc1 (atropisomer, axis not shown; (P)) [Example 45, N—((S)-1-((3P)-3-(4-chloro-1-methyl-3-(methylsulfonamido)-1H-indazol-7-yl)-7-(5-methoxypyridin-2-yl)-4-oxo-3,4-dihydroquinazolin-2-yl)-2-(3,5-difluorophenyl)ethyl)-2-((3bS,4aR)-3-(difluoromethyl)-5,5-difluoro-3b,4,4a,5-tetrahydro-1H-cyclopropa[3,4]cyclopenta[1,2-c]pyrazol-1-yl)acetamide] | > 500000 | 10.00 |
| Cn1nc(NS(C)(=O)=O)c2c(Cl)ccc(-n3c([C@H](Cc4cc(F)cc(F)c4)NC(=O)Cn4nc(C(F)F)c5c4C(F)(F)[C@@H]4C[C@H]54)nc4cc(-c5cc(C(F)(F)F)cc(C(F)(F)F)n5)ccc4c3=O)c21 (atropisomer, axis not shown; (P)) [Example 58, N—((S)-1-(7-(4,6-bis(trifluoromethyl)pyridin-2-yl)-(3P)-3-(4-chloro-1-methyl-3-(methylsulfonamido)-1H-indazol-7-yl)-4-oxo-3,4-dihydroquinazolin-2-yl)-2-(3,5-difluorophenyl)ethyl)-2-((3bS,4aR)-3-(difluoromethyl)-5,5-difluoro-3b,4,4a,5-tetrahydro-1H-cyclopropa[3,4]cyclopenta[1,2-c]pyrazol-1-yl)acetamide] | > 500000 | 9.02 |
| CN(c1cccc(-c2ccc3c(=O)n(-c4ccc(Cl)c5c(NS(C)(=O)=O)nn(C)c45)c([C@H](Cc4cc(F)cc(F)c4)NC(=O)Cn4nc(C(F)F)c5c4C(F)(F)[C@@H]4C[C@H]54)nc3c2)c1)S(C)(=O)=O [Example 28, N—((S)-1-((3P)-3-(4-chloro-1-methyl-3-(methylsulfonamido)-1H-indazol-7-yl)-7-(3-(N-methylmethylsulfonamido)phenyl)-4-oxo-3,4-dihydroquinazolin-2-yl)-2-(3,5-difluorophenyl)ethyl)-2-((3bS,4aR)-3-(difluoromethyl)-5,5-difluoro-3b,4,4a,5-tetrahydro-1H-cyclopropa[3,4]cyclopenta[1,2-c]pyrazol-1-yl)acetamide] | > 500000 | 9.66 |
| Cc1ccc(F)c(-c2ccc3c(=O)n(-c4ccc(Cl)c5c(NS(C)(=O)=O)nn(CC(F)(F)F)c45)c([C@H](Cc4cc(F)cc(F)c4)NC(=O)Cn4nc(C(F)F)c5c4C(F)(F)[C@@H]4C[C@H]54)nc3c2)n1 (atropisomer, axis not shown) [Example 113] | > 500000 | 10.00 |
| CCc1cc(-c2ccc3c(=O)n(-c4ccc(C)c5c(NS(C)(=O)=O)nn(C)c45)c([C@H](Cc4cc(F)cc(F)c4)NC(=O)Cn4nc(C(F)F)c5c4C(F)(F)[C@@H]4C[C@H]54)nc3c2)nc(C)n1 (atropisomer, axis not shown) [Example 139, 2-[(2S,4R)-9-(difluoromethyl)-5,5-difluoro-7,8-diazatricyclo[4.3.0.0^2,^4]nona-1(6),8-dien-7-yl]-N-[(1S)-2-(3,5-difluorophenyl)-1-[7-(6-ethy1-2-methylpyrimidin-4-yl)-3-(3-methanesulfonamido-1,4-dimethyl-1H-indazol-7-yl)-4-oxo-3,4-dihydroquinazolin-2-yl]ethyl]acetamide] | > 500000 | 9.89 |
| Cc1ccc(-c2ccc3c(=O)n(-c4ccc(Cl)c5c(NS(C)(=O)=O)nn(C)c45)c([C@H](Cc4cc(F)cc(F)c4)NC(=O)Cn4nc(C(F)F)c5c4C(F)(F)[C@@H]4C[C@H]54)nc3c2)nn1 (atropisomer, axis not shown; (P)) [Example 50, N—((S)-1-((3P)-3-(4-chloro-1-methyl-3-(methylsulfonamido)-1H-indazol-7-yl)-7-(6-methylpyridazin-3-yl)-4-oxo-3,4-dihydroquinazolin-2-yl)-2-(3,5-difluorophenyl)ethyl)-2-((3bS,4aR)-3-(difluoromethyl)-5,5-difluoro-3b,4,4a,5-tetrahydro-1H-cyclopropa[3,4]cyclopenta[1,2-c]pyrazol-1-yl)acetamide] | > 500000 | 10.33 |
| CCC(C)c1nccc(-c2ccc3c(=O)n(-c4ccc(Cl)c5c(NS(C)(=O)=O)nn(C)c45)c([C@H](Cc4cc(F)cc(F)c4)NC(=O)Cn4nc(C(F)F)c5c4C(F)(F)[C@@H]4C[C@H]54)nc3c2)n1 (stereo partly drawn) [Example 70, N-((1S)-1-(7-(2-(sec-butyl)pyrimidin-4-yl)-(3P)-3-(4-chloro-1-methyl-3-(methylsulfonamido)-1H-indazol-7-yl)-4-oxo-3,4-dihydroquinazolin-2-yl)-2-(3,5-difluorophenyl)ethyl)-2-((3bS,4aR)-3-(difluoromethyl)-5,5-difluoro-3b,4,4a,5-tetrahydro-1H-cyclopropa[3,4]cyclopenta[1,2-c]pyrazol-1-yl)acetamide] | > 500000 | 9.59 |
| CS(=O)(=O)Nc1nn(CC(F)(F)F)c2c(-n3c([C@H](Cc4cc(F)cc(F)c4)NC(=O)Cn4nc(C(F)F)c5c4C(F)(F)[C@@H]4C[C@H]54)nc4cc(-c5nccc(C(F)(F)F)n5)ccc4c3=O)ccc(Cl)c12 (atropisomer, axis not shown) [Example 102] | > 500000 | 9.89 |
| Cc1cc(C)nc(-c2ccc3c(=O)n(-c4ccc(Cl)c5c(NS(=O)(=O)C6CC6)nn(CC(F)F)c45)c([C@H](Cc4cc(F)cc(F)c4)NC(=O)Cn4nc(C(F)F)c5c4C(F)(F)[C@@H]4C[C@H]54)nc3c2)c1 (atropisomer, axis not shown; (P)) [Example 83, N—((S)-1-((3P)-3-(4-chloro-3-(cyclopropanesulfonamido)-1-(2,2-difluoroethyl)-1H-indazol-7-yl)-7-(4,6-dimethylpyridin-2-yl)-4-oxo-3,4-dihydroquinazolin-2-yl)-2-(3,5-difluorophenyl)ethyl)-2-((3bS,4aR)-3-(difluoromethyl)-5,5-difluoro-3b,4,4a,5-tetrahydro-1H-cyclopropa[3,4]cyclopenta[1,2-c]pyrazol-1-yl)acetamide] | > 500000 | 9.36 |
| Cn1nc(NS(C)(=O)=O)c2c(Cl)ccc(-n3c([C@H](Cc4cc(F)cc(F)c4)NC(=O)Cn4nc(C(F)F)c5c4C(F)(F)[C@@H]4C[C@H]54)nc4cc(-c5cccc(C6CC6)n5)ccc4c3=O)c21 (atropisomer, axis not shown; (P)) [Example 41, N—((S)-1-((3P)-3-(4-chloro-1-methyl-3-(methylsulfonamido)-1H-indazol-7-yl)-7-(6-cyclopropylpyridin-2-yl)-4-oxo-3,4-dihydroquinazolin-2-yl)-2-(3,5-difluorophenyl)ethyl)-2-((3bS,4aR)-3-(difluoromethyl)-5,5-difluoro-3b,4,4a,5-tetrahydro-1H-cyclopropa[3,4]cyclopenta[1,2-c]pyrazol-1-yl)acetamide] | > 500000 | 9.48 |
